# Results taken from PubChem BioAssay AID1963825 (Molecular Pharmacology Branch, DTP, NCI, 2024).
# Experiment: Anticancer human tumor 997537-175-T-J1-PDC patient-derived colon adenocarcinoma cell line growth inhibition [POLQ]
# Conditions: 997537-175-T-J1-PDC complex spheroid viability, combination with POLQ inhibitors; for IC50: curve of first compound; for viability, T/C: stronger effect = lower value
# How it was run: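 Three-cell-type spheroids modelling solid tumor plus stroma served as the readout system; POL inhibitors were tested individually and in combination, concentration ranges set by clinical Cmax where known.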
# [1] = second compound 0.0316 µM, first compound 0.0316 µM
# [2] = second compound 0.0316 µM, first compound 0.1 µM
# [3] = second compound 0.0316 µM, first compound 0.316 µM
# [4] = second compound 0.0316 µM, first compound 1 µM
# [5] = second compound 0.0316 µM, first compound 3.16 µM
# [6] = second compound 0.0316 µM, first compound 10 µM
# [7] = second compound 0.1 µM, first compound 0.0316 µM
# [8] = second compound 0.1 µM, first compound 0.1 µM
# [9] = second compound 0.1 µM, first compound 0.316 µM
# [10] = second compound 0.1 µM, first compound 1 µM
# [11] = second compound 0.1 µM, first compound 3.16 µM
# [12] = second compound 0.1 µM, first compound 10 µM
# [13] = second compound 0.316 µM, first compound 0.0316 µM
# [14] = second compound 0.316 µM, first compound 0.1 µM
# [15] = second compound 0.316 µM, first compound 0.316 µM
# [16] = second compound 0.316 µM, first compound 1 µM
# [17] = second compound 0.316 µM, first compound 3.16 µM
# [18] = second compound 0.316 µM, first compound 10 µM
# [19] = second compound 1 µM, first compound 0.0316 µM
# [20] = second compound 1 µM, first compound 0.1 µM
# [21] = second compound 1 µM, first compound 0.316 µM
# [22] = second compound 1 µM, first compound 1 µM
# [23] = second compound 1 µM, first compound 3.16 µM
# [24] = second compound 1 µM, first compound 10 µM
# [25] = second compound 3.16 µM, first compound 0.0316 µM
# [26] = second compound 3.16 µM, first compound 0.1 µM
# [27] = second compound 3.16 µM, first compound 0.316 µM
# [28] = second compound 3.16 µM, first compound 1 µM
# [29] = second compound 3.16 µM, first compound 3.16 µM
# [30] = second compound 3.16 µM, first compound 10 µM
# [31] = second compound 10 µM, first compound 0.0316 µM
# [32] = second compound 10 µM, first compound 0.1 µM
# [33] = second compound 10 µM, first compound 0.316 µM
# [34] = second compound 10 µM, first compound 1 µM
# [35] = second compound 10 µM, first compound 3.16 µM
# [36] = second compound 10 µM, first compound 10 µM
# 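Note: luminescence signal used as a surrogate for viable cells; spheroids exposed to drugs for seven days before readout.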
compound,measurement,setting,value
C=CC(=O)N1CCN(c2nc(=O)n(-c3c(C)ccnc3C(C)C)c3nc(-c4c(O)cccc4F)c(F)cc23)C(C)C1 (stereo not drawn) + Nc1ccc(C#CCN(C(=O)Cc2ncc(C(F)(F)F)cc2C(F)(F)F)c2ccc(F)cc2)nn1,IC50,second compound 0.0316 µM,> 10 µM
same,IC50,second compound 0.1 µM,> 10 µM
same,IC50,second compound 0.316 µM,> 10 µM
same,IC50,second compound 1 µM,> 10 µM
same,IC50,second compound 3.16 µM,> 10 µM
same,IC50,second compound 10 µM,> 10 µM
same,"viability, T/C",[1],106%
same,"viability, T/C",[2],97.1%
same,"viability, T/C",[3],95.4%
same,"viability, T/C",[4],108%
same,"viability, T/C",[5],93.8%
same,"viability, T/C",[6],100%
same,"viability, T/C",[7],103%
same,"viability, T/C",[8],91.1%
same,"viability, T/C",[9],102%
same,"viability, T/C",[10],96.7%
same,"viability, T/C",[11],111%
same,"viability, T/C",[12],107%
same,"viability, T/C",[13],96.6%
same,"viability, T/C",[14],102%
same,"viability, T/C",[15],103%
same,"viability, T/C",[16],101%
same,"viability, T/C",[17],90.9%
same,"viability, T/C",[18],94%
same,"viability, T/C",[19],102%
same,"viability, T/C",[20],111%
same,"viability, T/C",[21],109%
same,"viability, T/C",[22],97.2%
same,"viability, T/C",[23],96.9%
same,"viability, T/C",[24],97.6%
same,"viability, T/C",[25],96.3%
same,"viability, T/C",[26],106%
same,"viability, T/C",[27],103%
same,"viability, T/C",[28],96.8%
same,"viability, T/C",[29],106%
same,"viability, T/C",[30],98.2%
same,"viability, T/C",[31],101%
same,"viability, T/C",[32],106%
same,"viability, T/C",[33],104%
same,"viability, T/C",[34],95.3%
same,"viability, T/C",[35],97.6%
same,"viability, T/C",[36],90.8%
CC1COCCN1c1cc(C2(O)CC3CCC(C2)O3)c2cnn(-c3ccn[nH]3)c2n1 (stereo not drawn) + Nc1ccc(C#CCN(C(=O)Cc2ncc(C(F)(F)F)cc2C(F)(F)F)c2ccc(F)cc2)nn1,IC50,second compound 0.0316 µM,1.7 µM
same,IC50,second compound 0.1 µM,> 10 µM
same,IC50,second compound 0.316 µM,> 10 µM
same,IC50,second compound 1 µM,6.2 µM
same,IC50,second compound 3.16 µM,3.16 µM
same,IC50,second compound 10 µM,> 10 µM
same,"viability, T/C",[1],94.8%
same,"viability, T/C",[2],83.7%
same,"viability, T/C",[3],58.4%
same,"viability, T/C",[4],56.8%
same,"viability, T/C",[5],40.1%
same,"viability, T/C",[6],53.3%
same,"viability, T/C",[7],98.8%
same,"viability, T/C",[8],73.5%
same,"viability, T/C",[9],42.5%
same,"viability, T/C",[10],72.8%
same,"viability, T/C",[11],48%
same,"viability, T/C",[12],64.5%
same,"viability, T/C",[13],93.2%
same,"viability, T/C",[14],80.8%
same,"viability, T/C",[15],49.9%
same,"viability, T/C",[16],46.3%
same,"viability, T/C",[17],51.4%
same,"viability, T/C",[18],75.1%
same,"viability, T/C",[19],97.3%
same,"viability, T/C",[20],69.4%
same,"viability, T/C",[21],63.1%
same,"viability, T/C",[22],47.6%
same,"viability, T/C",[23],58.6%
same,"viability, T/C",[24],44.7%
same,"viability, T/C",[25],82.4%
same,"viability, T/C",[26],79.1%
same,"viability, T/C",[27],42%
same,"viability, T/C",[28],56.4%
same,"viability, T/C",[29],42.8%
same,"viability, T/C",[30],74.7%
same,"viability, T/C",[31],94%
same,"viability, T/C",[32],79.9%
same,"viability, T/C",[33],55.3%
same,"viability, T/C",[34],52.2%
same,"viability, T/C",[35],62%
same,"viability, T/C",[36],65.2%
CCc1cc2c(N3CCc4c(cc(Cn5ccnc5)cc4-c4cn(C)nc4C(F)(F)F)C3=O)ccnc2c(OC)n1 + Nc1ccc(C#CCN(C(=O)Cc2ncc(C(F)(F)F)cc2C(F)(F)F)c2ccc(F)cc2)nn1,IC50,second compound 0.0316 µM,> 10 µM
same,IC50,second compound 0.1 µM,> 10 µM
same,IC50,second compound 0.316 µM,> 10 µM
same,IC50,second compound 1 µM,> 10 µM
same,IC50,second compound 3.16 µM,> 10 µM
same,IC50,second compound 10 µM,> 10 µM
same,"viability, T/C",[1],89.5%
same,"viability, T/C",[2],110%
same,"viability, T/C",[3],94.7%
same,"viability, T/C",[4],97.2%
same,"viability, T/C",[5],85.9%
same,"viability, T/C",[6],57.8%
same,"viability, T/C",[7],94.6%
same,"viability, T/C",[8],98.2%
same,"viability, T/C",[9],87%
same,"viability, T/C",[10],114%
same,"viability, T/C",[11],82.1%
same,"viability, T/C",[12],63.2%
same,"viability, T/C",[13],92.4%
same,"viability, T/C",[14],93.5%
same,"viability, T/C",[15],83.5%
same,"viability, T/C",[16],94.6%
same,"viability, T/C",[17],68.4%
same,"viability, T/C",[18],61.8%
same,"viability, T/C",[19],103%
same,"viability, T/C",[20],104%
same,"viability, T/C",[21],97.3%
same,"viability, T/C",[22],77%
same,"viability, T/C",[23],77.4%
same,"viability, T/C",[24],86.9%
same,"viability, T/C",[25],97%
same,"viability, T/C",[26],76.5%
same,"viability, T/C",[27],90.5%
same,"viability, T/C",[28],91.2%
same,"viability, T/C",[29],71.6%
same,"viability, T/C",[30],64.1%
same,"viability, T/C",[31],97.4%
same,"viability, T/C",[32],96.2%
same,"viability, T/C",[33],101%
same,"viability, T/C",[34],91%
same,"viability, T/C",[35],79.5%
same,"viability, T/C",[36],75.5%
CNCc1ccc(-c2[nH]c3cc(F)cc4c3c2CCNC4=O)cc1 + Nc1ccc(C#CCN(C(=O)Cc2ncc(C(F)(F)F)cc2C(F)(F)F)c2ccc(F)cc2)nn1,IC50,second compound 0.0316 µM,> 10 µM
same,IC50,second compound 0.1 µM,> 10 µM
same,IC50,second compound 0.316 µM,> 10 µM
same,IC50,second compound 1 µM,> 10 µM
same,IC50,second compound 3.16 µM,> 10 µM
same,IC50,second compound 10 µM,> 10 µM
same,"viability, T/C",[1],106%
same,"viability, T/C",[2],102%
same,"viability, T/C",[3],100%
same,"viability, T/C",[4],97.1%
same,"viability, T/C",[5],103%
same,"viability, T/C",[6],104%
same,"viability, T/C",[7],98.6%
same,"viability, T/C",[8],102%
same,"viability, T/C",[9],93.2%
same,"viability, T/C",[10],95.5%
same,"viability, T/C",[11],99.2%
same,"viability, T/C",[12],101%
same,"viability, T/C",[13],87.3%
same,"viability, T/C",[14],108%
same,"viability, T/C",[15],106%
same,"viability, T/C",[16],90.8%
same,"viability, T/C",[17],97.7%
same,"viability, T/C",[18],99.7%
same,"viability, T/C",[19],90%
same,"viability, T/C",[20],108%
same,"viability, T/C",[21],102%
same,"viability, T/C",[22],94.6%
same,"viability, T/C",[23],110%
same,"viability, T/C",[24],89.8%
same,"viability, T/C",[25],93.1%
same,"viability, T/C",[26],95.6%
same,"viability, T/C",[27],85.1%
same,"viability, T/C",[28],99.1%
same,"viability, T/C",[29],96.2%
same,"viability, T/C",[30],111%
same,"viability, T/C",[31],87.4%
same,"viability, T/C",[32],104%
same,"viability, T/C",[33],101%
same,"viability, T/C",[34],96.8%
same,"viability, T/C",[35],110%
same,"viability, T/C",[36],114%
